Measurements from article PMC11273936, “The Antimicrobial Peptide Capitellacin: Chemical Synthesis of Analogues to Probe the Role of Disulphide Bridges and Their Replacement with Vinyl Sulphides” (Antibiotics, 2024).
≈ marks a conversion by molar mass, not a printed value. Each block holds one compound with its values, some of them ahead of it.

Experiments:
C. albicans SC5314 = assay: MIC assay, fungus (CLSI broth microdilution); format: cell-based; conditions: Candida albicans, RPMI 1640, 35 °C, 48 h, 0.5 x 10^3 to 2.5 x 10^3 CFU/mL, triplicate, three independent assays, read-out: Minimum Inhibitory Concentrations, C. albicans SC5314 (reference strain)
P. aeruginosa SVB-B9 = assay: MIC assay, bacteria (CLSI broth microdilution); format: cell-based, Pseudomonas aeruginosa; conditions: Gram negative, CA-MHB, 37 °C with shaking, 18 h, ~5 x10^5 CFU/mL, triplicate, three biological replicates
E. coli ATCC 25922 = assay: MIC assay, bacteria (CLSI broth microdilution); format: cell-based, Escherichia coli; conditions: Gram negative, CA-MHB, 37 °C with shaking, 18 h, ~5 x10^5 CFU/mL, triplicate, three biological replicates
S. aureus ATCC 25913 = assay: MIC assay, bacteria (CLSI broth microdilution); format: cell-based; conditions: Staphylococcus aureus, ATCC25913, Gram positive, CA-MHB, 37 °C with shaking, 18 h, ~5 x10^5 CFU/mL, triplicate, three biological replicates, read-out: Minimum Inhibitory Concentrations, S. aureus ATCC 25913

- MIC (C. albicans SC5314): 1 µM (≈ 0.924 µg/mL)
Compound: C[C@@H]1[C@H](O)[C@@H](C)/C=C/C=C/C=C/C=C/C=C/C=C/C=C/[C@H](O[C@@H]2O[C@H](C)[C@@H](O)[C@H](N)[C@@H]2O)C[C@@H]2O[C@](O)(C[C@@H](O)C[C@@H](O)[C@H](O)CC[C@@H](O)C[C@@H](O)CC(=O)O[C@H]1C)C[C@H](O)[C@H]2C(=O)O [AMB, amphotericin B]

Compound: polymyxin B [PMB]
- Minimum Inhibitory Concentrations, P. aeruginosa SVB-B9 (type strain) (P. aeruginosa SVB-B9): 0.125 µM
- Minimum Inhibitory Concentrations, E. coli ATCC 25922 (E. coli ATCC 25922): 0.125 µM

- MIC (S. aureus ATCC 25913): 2 µM (≈ 0.731 µg/mL)
Compound: CC1(C)S[C@@H]2[C@H](NC(=O)[C@H](N)c3ccc(O)cc3)C(=O)N2[C@H]1C(=O)O [AMX, amoxicillin]
